According to the supplement of paper PMC10307832:

Legend:
Assay in all cases: relative viability (nuclei count vs DMSO), 5 days (fraction); higher = more cells survive
Zebularine = compound: O=c1ncccn1[C@@H]1O[C@H](CO)[C@@H](O)[C@H]1O [Zebularine]
Method in brief: (§1)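 Lung cancer cell lines in 1536-well plates were kept overnight at 37 °C, then pinned with five library-drug doses (not always all listed) spaced by √10 on vehicle-anchored plates. After 5 days without medium change, cells were fixed, permeabilised and Hoechst-stained in one step, imaged at 4×, and nuclei were counted with MetaXpress. Viability is treated-well nuclei divided by vehicle-well nuclei, taken as the median over plates. Plates passed only with control CV below 25% and at least one doubling.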

BI-D1870 = compound: CC(C)CCN1c2nc(Nc3cc(F)c(O)c(F)c3)ncc2N(C)C(=O)C1C [BI-D1870]
Method in brief: as §1

Zebularine + Pemetrexed = compound: O=c1ncccn1[C@@H]1O[C@H](CO)[C@@H](O)[C@H]1O [Zebularine] + Nc1nc2[nH]cc(CCc3ccc(C(=O)N[C@@H](CCC(=O)O)C(=O)O)cc3)c2c(=O)[nH]1 [Pemetrexed] (partner 0.2 µM)
Method in brief: (§2)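 Lung cancer cell lines in 1536-well plates got either a single drug or a fixed anchor-drug dose together with five library-drug doses (not always all listed) in √10 steps, by pin tool, on the day after seeding. Nuclei were counted after 5 days, and relative viability is the treated-to-vehicle ratio of nuclei counts. Values are medians of duplicate plates.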

BI-D1870 + OSI-027 = compound: CC(C)CCN1c2nc(Nc3cc(F)c(O)c(F)c3)ncc2N(C)C(=O)C1C [BI-D1870] + COc1cccc2cc(-c3nc([C@H]4CC[C@H](C(=O)O)CC4)n4ncnc(N)c34)[nH]c12 [OSI-027] (partner 0.5 µM)
Method in brief: as §2

| Cell Line | relative viability (Zebularine; 1 µM) | relative viability (Zebularine; 3.162 µM) | relative viability (Zebularine; 10 µM) | relative viability (Zebularine; 31.62 µM) | relative viability (Zebularine; 100 µM) | relative viability (BI-D1870; 0.04 µM) | relative viability (BI-D1870; 0.1265 µM) | relative viability (BI-D1870; 0.4 µM) | relative viability (BI-D1870; 1.265 µM) | relative viability (BI-D1870; 4 µM) | relative viability (Zebularine + Pemetrexed; first compound 1 µM) | relative viability (Zebularine + Pemetrexed; first compound 3.162 µM) | relative viability (Zebularine + Pemetrexed; first compound 10 µM) | relative viability (Zebularine + Pemetrexed; first compound 31.62 µM) | relative viability (Zebularine + Pemetrexed; first compound 100 µM) | relative viability (BI-D1870 + OSI-027; first compound 0.04 µM) | relative viability (BI-D1870 + OSI-027; first compound 0.1265 µM) | relative viability (BI-D1870 + OSI-027; first compound 0.4 µM) | relative viability (BI-D1870 + OSI-027; first compound 1.265 µM) | relative viability (BI-D1870 + OSI-027; first compound 4 µM) |
| --- | --- | --- | --- | --- | --- | --- | --- | --- | --- | --- | --- | --- | --- | --- | --- | --- | --- | --- | --- | --- |
| 201T | 1.08 | 0.986 | 0.776 | 1 | 0.947 | 0.989 | 0.962 | 0.975 | 0.985 | 0.959 | 0.359 | 0.343 | 0.35 | 0.311 | 0.271 | 0.742 | 0.826 | 0.702 | 0.801 | 0.683 |
| A549 | 1.08 | 0.913 | 0.519 | 0.75 | 0.155 | 1.06 | 0.908 | 0.975 | 1.04 | 0.848 | – | – | – | – | – | – | – | – | – | – |
| A-427 | 1.11 | 0.898 | 0.65 | 0.55 | 0.267 | 1.18 | 0.945 | 0.997 | 1.04 | 0.801 | 1.08 | 0.991 | 0.95 | 0.538 | 0.294 | 0.547 | 0.429 | 0.574 | 0.61 | 0.528 |
| ABC-1 | 0.922 | 0.724 | 0.687 | 0.641 | 0.494 | 0.949 | 0.887 | 0.92 | 1.01 | 0.761 | – | – | – | – | – | 0.669 | 0.406 | 0.416 | 0.501 | 0.319 |
| BEN | 0.913 | 0.788 | 0.45 | 0.378 | 0.333 | 1.03 | 0.915 | 1.05 | 1.07 | 0.845 | 0.943 | 0.636 | 0.584 | 0.562 | 0.306 | 0.296 | 0.289 | 0.283 | 0.311 | 0.283 |
| CAL-12T | 1.03 | 0.871 | 0.793 | 0.993 | 0.671 | 1.14 | 0.87 | 0.946 | 0.97 | 0.682 | 1.43 | 1.1 | 0.914 | 1.18 | 0.47 | 0.593 | 0.449 | 0.477 | 0.599 | 0.303 |
| COR-L23 | 1.07 | 1.05 | 0.484 | 0.504 | 0.177 | 1.12 | 0.945 | 1.09 | 1.13 | 0.83 | 0.201 | 0.199 | 0.193 | 0.207 | 0.168 | 0.883 | 0.722 | 0.707 | 0.823 | 0.577 |
| COR-L 105 | 1.03 | 0.952 | 0.831 | 1.15 | 0.873 | 0.895 | 0.836 | 0.949 | 0.939 | 0.888 | 1.26 | 1.06 | 0.987 | 1.24 | 0.824 | 0.769 | 0.682 | 0.619 | 0.808 | 0.754 |
| Calu-6 | 1.18 | 0.99 | 0.747 | 0.7 | 0.246 | 1.11 | 0.865 | 0.998 | 0.904 | 0.676 | – | – | – | – | – | – | – | – | – | – |
| ChaGo-K-1 | 1.03 | 0.97 | 0.525 | 0.317 | 0.244 | 1.05 | 0.991 | 0.9 | 0.962 | 0.868 | 0.269 | 0.257 | 0.254 | 0.242 | 0.203 | 0.652 | 0.55 | 0.547 | 0.559 | 0.538 |
| EBC-1 | 1.1 | 0.811 | 0.842 | 1.11 | 0.974 | 0.995 | 0.889 | 0.839 | 0.654 | 0.361 | – | – | – | – | – | – | – | – | – | – |
| EKVX | 1.04 | 0.961 | – | 1.03 | 0.985 | 1.06 | 0.94 | 0.889 | 1.11 | 0.931 | 0.396 | 0.431 | – | 0.433 | 0.397 | 0.68 | 0.608 | 0.64 | 0.776 | 0.641 |
| EMC-BAC-2 | 1.07 | 0.994 | 0.775 | 0.981 | 1.06 | 1.1 | 1.01 | 0.891 | 1.01 | 0.904 | 0.496 | 0.466 | 0.428 | 0.458 | 0.474 | 0.46 | 0.37 | 0.351 | 0.422 | 0.334 |
| EPLC-272H | 1.14 | 0.577 | 0.558 | 0.811 | 0.724 | 1.12 | 0.802 | 0.926 | 0.821 | 0.627 | 0.36 | 0.331 | – | 0.342 | 0.264 | 0.263 | 0.218 | 0.272 | 0.278 | 0.204 |
| H3255 | 1.01 | 0.948 | 0.782 | 0.998 | 1.05 | 1.01 | 0.97 | 1.04 | 1.09 | 0.994 | 0.641 | 0.576 | 0.553 | 0.516 | 0.563 | 0.627 | 0.51 | 0.548 | 0.682 | 0.539 |
| HARA | 1.09 | 1.13 | – | 1.06 | 0.897 | 1.03 | 0.905 | 0.932 | 1.27 | 0.804 | 0.295 | 0.253 | 0.214 | 0.324 | 0.307 | 0.616 | 0.417 | 0.503 | 0.608 | 0.421 |
| HCC-15 | 1.11 | 0.974 | 0.752 | 0.906 | 0.497 | 1.02 | 0.935 | 0.93 | 1.02 | 0.725 | 0.23 | 0.213 | 0.201 | 0.219 | 0.186 | 0.732 | 0.611 | 0.638 | 0.765 | 0.396 |
